In assay [1] the target is T1, 11β-HSD1 (human enzyme) (Homo sapiens, UniProt P28845).
T1 construct: made in house
In words: Enzyme Assay (SPA, 3H-cortisone, purified HSD-1 enzyme prep), human enzyme. It is filed as biochemical. The settings on record: species of enzyme not given.

The subject of assay [2] is intraocular pressure. Conditions: ingestion, normal subjects; cited from earlier work.

T1 sequence (P28845 whole entry): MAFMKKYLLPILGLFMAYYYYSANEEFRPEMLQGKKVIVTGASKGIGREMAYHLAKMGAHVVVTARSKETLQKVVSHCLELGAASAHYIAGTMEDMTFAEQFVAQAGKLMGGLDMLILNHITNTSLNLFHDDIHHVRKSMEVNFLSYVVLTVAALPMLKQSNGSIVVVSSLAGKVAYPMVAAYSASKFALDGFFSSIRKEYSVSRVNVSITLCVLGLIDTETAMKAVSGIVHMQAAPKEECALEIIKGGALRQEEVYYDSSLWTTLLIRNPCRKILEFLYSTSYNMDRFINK

Take `O=C1N=C(Nc2ccccc2Cl)SC1C1CCCCC1` (centres unmarked) [2-(2-chlorophenylamino)-5-cyclohexylthiazol-4(5H)-one]: in assay [1], the IC50 – broadly, the midpoint of a concentration-inhibition curve – was below 0.02 µM. On the same count and under the same terms, with `O=C1N=C(Nc2ccccc2Cl)SC1C1CCCC1` (centres unmarked) [2-(2-chlorophenylamino)-5-cyclopentylthiazol-4(5H)-one] the figure was below 0.02 µM. On the same count and under the same terms, to `CC1(c2ccncc2)SC(Nc2ccccc2Cl)=NC1=O` (centres unmarked) [2-(2-chlorophenylamino)-5-methyl-5-(pyridin-4-yl)thiazol-4(5H)-one] belongs below 0.02 µM. On the same count and under the same terms, to `CC1(C2CCOCC2)SC(Nc2ccccc2Cl)=NC1=O` (centres unmarked) [2-(2-chlorophenylamino)-5-methyl-5-(tetrahydro-2H-pyran-4-yl)thiazol-4(5H)-one] belongs below 0.02 µM; to `O=C1N=C(Nc2ccccc2F)SC1[C@H]1CCOC1` (stereo partly drawn) [2-(2-fluorophenylamino)-5-((S)-tetrahydrofuran-3-yl)thiazol-4(5H)-one], below 0.02 µM; to `CC1(CC(F)(F)F)SC(N[C@@H]2C[C@H]3CC[C@@H]2C3)=NC1=O` (stereo partly drawn) [2-((1R,2R,4S)-bicyclo[2.2.1]heptan-2-ylamino)-5-methyl-5-(2,2,2-trifluoroethyl)thiazol-4(5H)-one], below 0.02 µM. In assay [1], `CCCC1(C)SC(N[C@@H]2C[C@H]3CC[C@@H]2C3)=NC1=O` (stereo partly drawn) [2-((1R,2R,4S)-bicyclo[2.2.1]heptan-2-ylamino)-5-methyl-5-propylthiazol-4(5H)-one] had an IC50 below 0.02 µM.

In assay [1], `CC(C)C1SC(Nc2ccccc2Cl)=NC1=O` (centres unmarked) [2-((2-chlorophenyl)amino)-5-(1-methylethyl)-1,3-thiazol-4(5H)-one] showed an IC50 below 0.02 µM. On the same count and under the same terms, to `CC1(c2ccccc2)SC(Nc2ccccc2Cl)=NC1=O` (centres unmarked) [2-((2-chlorophenyl)amino)-5-methyl-5-phenyl-1,3-thiazol-4(5H)-one] belongs below 0.02 µM; to `O=C1N=C(Nc2ccccc2F)SC12CCCC2` [2-((2-fluorophenyl)amino)-1-thia-3-azaspiro[4.4]non-2-en-4-one], below 0.02 µM; to `Cc1c(Cl)cccc1NC1=NC(=O)C(C(C)C)S1` (centres unmarked) [2-((3-chloro-2-methylphenyl)amino)-5-(1-methylethyl)-1,3-thiazol-4(5H)-one], below 0.02 µM.

Compound `CC(C)C1(C)SC(NC23CC4CC(CC(F)(C4)C2)C3)=NC1=O` (centres unmarked) [2-((3-fluorotricyclo[3.3.1.1˜3,7˜]dec-1-yl)amino)-5-methyl-5-(1-methylethyl)-1,3-thiazol-4(5H)-one] showed a half-inhibitory concentration (IC50) in assay [1] below 0.02 µM. The same measure, in the same setting: to `Cc1ccc(F)cc1NC1=NC(=O)C(C(C)C)S1` (centres unmarked) [2-((5-fluoro-2-methylphenyl)amino)-5-(1-methylethyl)-1,3-thiazol-4(5H)-one] belongs below 0.02 µM; to `CC(C)C1(C)SC(N[C@H](C)c2ccc(F)cc2)=NC1=O` (stereo partly drawn) [2-((R)-1-(4-fluorophenyl)ethylamino)-5-isopropyl-5-methylthiazol-4(5H)-one], below 0.02 µM; to `C[C@H](NC1=NC(=O)C(C)(c2ccncc2)S1)c1ccccc1F` (stereo partly drawn) [2-((S)-1-(2-fluorophenyl)ethylamino)-5-methyl-5-(pyridin-4-yl)thiazol-4(5H)-one], below 0.02 µM. `C[C@H](NC1=NC(=O)C(C)(c2ccncc2)S1)c1ccc(F)cc1` (stereo partly drawn) [2-((S)-1-(4-fluorophenyl)ethylamino)-5-methyl-5-(pyridin-4-yl)thiazol-4(5H)-one] had an IC50 in assay [1] below 0.02 µM. `CC(C)C1(C)SC(N[C@@H](C)C2CCCCC2)=NC1=O` (stereo partly drawn) [2-((S)-1-cyclohexylethylamino)-5-isopropyl-5-methylthiazol-4(5H)-one] registered an IC50 in assay [1] below 0.02 µM. As to `O=C1N=C(NCC2CCCCC2)SC1[C@H]1CCOC1` (stereo partly drawn) [2-(cyclohexylmethylamino)-5-(S)-tetrahydrofuran-3-yl)thiazol-4(5H)-one], in assay [1], the IC50 is below 0.02 µM.

In assay [1], `CC1([C@H]2CCOC2)SC(NCC2CCCCC2)=NC1=O` (stereo partly drawn) [2-(cyclohexylmethylamino)-5-methyl-5-((S)-tetrahydrofuran-3-yl)thiazol-4(5H)-one] yielded an IC50 below 0.02 µM.

As for `O=C1N=C(Nc2ccccc2F)SC1C1CCCC1` (centres unmarked) [5-cyclopentyl-2-(2-fluorophenylamino)thiazol-4(5H)-one], in assay [1], the IC50 was below 0.02 µM.

Compound `CCC1(C)SC(NC23CC4CC(CC(C4)C2)C3)=NC1=O` (centres unmarked) [5-ethyl-5-methyl-2-(tricyclo[3.3.1.1˜3,7˜]dec-1-ylamino)-1,3-thiazol-4(5H)-one] came in with an IC50 in assay [1] below 0.02 µM. With `CC1(c2ccncc2)SC(Nc2ccccc2C(F)(F)F)=NC1=O` (centres unmarked) [5-methyl-5-(pyridin-4-yl)-2-(2-(trifluoromethyl)phenylamino)thiazol-4(5H)-one], in assay [1], the IC50 is below 0.02 µM.

In the case of `CC(C)[C@@]1(C)SC(Nc2ccccc2Cl)=NC1=O` [(5R)-2-((2-chlorophenyl)amino)-5-methyl-5-(1-methylethyl)-1,3-thiazol-4(5H)-one], in assay [1], the half-inhibitory concentration (IC50) was below 0.02 µM.

Turning to `C[C@@]1(c2ccccc2)SC(Nc2ccccc2Cl)=NC1=O` [(5S)-2-((2-chlorophenyl)amino)-5-methyl-5-phenyl-1,3-thiazol-4(5H)-one], the IC50 in assay [1] was below 0.02 µM. Same read-out and setting: with `CO[C@@H]1CCC[C@@]2(C1)SC(NC1CCCCCCC1)=NC2=O` [(5S,7R)-2-(cyclooctylamino)-7-(methyloxy)-1-thia-3-azaspiro[4.5]dec-2-en-4-one] the figure was below 0.02 µM. Regarding `CC1(C)[C@@H](OC(=O)CCC(=O)O)CC[C@]2(C)[C@H]3C(=O)C=C4[C@@H]5C[C@@](C)(C(=O)O)CC[C@]5(C)CC[C@@]4(C)[C@]3(C)CC[C@@H]12` [carbenoxolone], the “reduction of intraocular pressure” value in assay [2] is 20%.

(Values after patent US8686011B2, “Inhibitors of 11-β-hydroxy steroid dehydrogenase type 1” (Amgen Inc., priority 2004, dated 2014).)
